Experimental data reported in ChEMBL document CHEMBL1629566, “Development and qualification of a pharmacodynamic model for the pronounced inoculum effect of ceftazidime against Pseudomonas aeruginosa” (2009).
Values after ≈ are worked out from the molar mass of the structure shown.

Tests used:
Assay type in all cases: functional
Pseudomonas aeruginosa [1] = experiment: Antimicrobial activity against Pseudomonas aeruginosa PAO1
Pseudomonas aeruginosa [2] = experiment: Antimicrobial activity against Pseudomonas aeruginosa PAO1 infected in in vitro pharmacodynamic model assessed as bacterial killing at 4 mg/L after 8 hrs using 10^6 CFU/ml inoculum by time kill study
Pseudomonas aeruginosa [3] = experiment: Antimicrobial activity against Pseudomonas aeruginosa PAO1 infected in in vitro pharmacodynamic model assessed as bacterial killing at 4 mg/L after 24 hrs using 10^6 CFU/ml inoculum by time kill study
Pseudomonas aeruginosa [4] = experiment: Antimicrobial activity against Pseudomonas aeruginosa PAO1 infected in in vitro pharmacodynamic model assessed as bacterial killing up to 64 mg/L after 48 hrs using 10^7 CFU/ml inoculum by time kill study
Pseudomonas aeruginosa [5] = experiment: Antimicrobial activity against Pseudomonas aeruginosa PAO1 infected in in vitro pharmacodynamic model assessed as bacterial killing at 0 to 128 mg/L using 10^8 CFU/ml inoculum by time kill study

With `CC(C)(O/N=C(\C(=O)N[C@@H]1C(=O)N2C(C(=O)[O-])=C(C[n+]3ccccc3)CS[C@H]12)c1csc(N)n1)C(=O)O` [CEFTAZIDIME] as the compound, how does the MIC (Pseudomonas aeruginosa [1]) read?
The MIC was 2 µg/mL (≈ 3.66 µM).

And the log10cfu (Pseudomonas aeruginosa [2])?
Its log10cfu is 3.

And the log10cfu (Pseudomonas aeruginosa [3])?
The log10cfu was 3.

What about the log10cfu (Pseudomonas aeruginosa [4]) of the same compound?
Its log10cfu is 1.6.

What about the log10cfu (Pseudomonas aeruginosa [5]) of the same compound?
The log10cfu was less than 0.3.
